Measured values published in article PMC4556614 (PLoS ONE, 2015).

How the values were obtained:
OCT2 [1] = molecular target: T1, OCT2 (Homo sapiens, UniProt O15244); assay: in vitro
OCT2 [2] = molecular target: T1, OCT2; assay: Inhibition of OCT2-mediated [3H]MPP+ uptake in HEK-OCT2 cells
[3] = ref 16 (Regenthal et al.), cited from earlier work; for Cmax,u: Cmax of unbound drug in humans; for Cmax: maximum steady-state plasma concentration in humans
[4] = test drug 20 µM, MPP+ 50 μM, 3 min, net uptake HEK-OCT2 minus HEK-VC
[5] = test drug 200 µM, MPP+ 50 μM, 3 min, net uptake HEK-OCT2 minus HEK-VC

T1 sequence (O15244 whole entry): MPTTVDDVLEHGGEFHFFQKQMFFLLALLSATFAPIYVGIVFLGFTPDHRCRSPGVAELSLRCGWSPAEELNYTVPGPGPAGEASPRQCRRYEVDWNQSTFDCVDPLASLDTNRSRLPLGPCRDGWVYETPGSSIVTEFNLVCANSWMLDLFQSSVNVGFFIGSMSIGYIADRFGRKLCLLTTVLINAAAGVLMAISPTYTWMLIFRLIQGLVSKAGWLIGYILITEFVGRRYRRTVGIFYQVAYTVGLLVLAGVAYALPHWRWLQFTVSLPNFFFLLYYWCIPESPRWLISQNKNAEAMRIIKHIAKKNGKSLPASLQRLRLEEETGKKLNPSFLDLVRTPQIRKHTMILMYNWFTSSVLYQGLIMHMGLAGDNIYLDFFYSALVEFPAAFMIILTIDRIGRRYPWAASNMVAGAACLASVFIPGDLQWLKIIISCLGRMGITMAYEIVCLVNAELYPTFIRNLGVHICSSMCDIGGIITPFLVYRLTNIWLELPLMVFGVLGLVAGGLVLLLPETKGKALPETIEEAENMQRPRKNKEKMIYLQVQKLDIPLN

SMILES	% Inhibition of OCT2-dependent MF uptake at 200 µM (mean ± SEM) (OCT2 [1]; human, pH 7.3)	% Inhibition of OCT2-dependent MF uptake at 20 µM (mean ± SEM) (OCT2 [1]; human, pH 7.3)	% Inhibition of OCT2-dependent MPP+ uptake at 20 µM (mean ± SEM) (OCT2 [2]; [4])	% Inhibition of OCT2-dependent MPP+ uptake at 200 µM (mean ± SEM) (OCT2 [2]; [5])	further results
O=C1Nc2ccc(Cl)cc2C(c2ccccc2)=NC1O (stereo not drawn) [Oxazepam]	97.5 ± 0.5				% Inhibition of OCT2-dependent MPP+ uptake at 20 µM (mean ± SEM) (OCT2 [2]; human, pH 7.3): 37.6 ± 4.7; % Inhibition of OCT2-dependent MPP+ uptake at 200 µM (mean ± SEM) (OCT2 [2]; human, pH 7.3): 44.6 ± 6.5
Fc1ccc([C@@H]2CCNC[C@H]2COc2ccc3c(c2)OCO3)cc1 [Paroxetine]	99.6 ± 1.9	80.6 ± 3.1	15.5 ± 3.8%	87.2 ± 3.6%	
CN1CCN(CCCN2c3ccccc3Sc3ccccc32)CC1 [Perazine]	92.0 ± 1.8	53.6 ± 3.6	58.5 ± 2.8%	65.9 ± 2.0%	
NC(=O)C1(N2CCCCC2)CCN(CCCC(=O)c2ccc(F)cc2)CC1 [Pipamperone]	78.1 ± 2.2	33.9 ± 6.0	12.0 ± 4.5%	33.1 ± 3.4%	
NC(=O)CN1CCCC1=O [Piracetam]	2.5 ± 1.7	3.4 ± 3.4	-9.5 ± 12.1%	-0.5 ± 10.0%	
CC[C@H](C)C(=O)O[C@H]1C[C@H](O)C=C2C=C[C@H](C)[C@H](CC[C@@H](O)C[C@@H](O)CC(=O)O)[C@H]21 [Pravastatin]	-11.1 ± 11.1	-26.3 ± 11.1	-30.2 ± 5.5%	-15.0 ± 5.2%	
C[C@]12C=CC(=O)C=C1CC[C@@H]1[C@@H]2[C@@H](O)C[C@@]2(C)[C@H]1CC[C@]2(O)C(=O)CO [Prednisolone]	91.5 ± 0.5	66.0 ± 2.5	42.1 ± 4.4%	68.6 ± 2.8%	
CC(C)C[C@H](CN)CC(=O)O [Pregabalin]	27.2 ± 5.9	-1.3 ± 9.0			% Inhibition of OCT2-dependent MPP+ uptake at 20 µM (mean ± SEM) (OCT2 [2]; human, pH 7.3): -29.6 ± 7.5; % Inhibition of OCT2-dependent MPP+ uptake at 200 µM (mean ± SEM) (OCT2 [2]; human, pH 7.3): -15.8 ± 5.2
CC(CN1c2ccccc2Sc2ccccc21)N(C)C (stereo not drawn) [Promethazine]	100.7 ± 1.3	83.7 ± 3.3	5.7 ± 3.8%	76.0 ± 3.0%	
CCOC(=O)[C@H](CCc1ccccc1)N[C@@H](C)C(=O)N1[C@H](C(=O)O)C[C@@H]2CCC[C@@H]21 [Ramipril]	35.4 ± 2.9	12.9 ± 4.1	72.5 ± 7.4%	83.6 ± 6.2%	
CNC(=C[N+](=O)[O-])NCCSCc1ccc(CN(C)C)o1 [Ranitidine]	91.5 ± 3.8	65.2 ± 7.7	-7.9 ± 12.9%	11.6 ± 3.4%	
Cc1nc2n(c(=O)c1CCN1CCC(c3noc4cc(F)ccc34)CC1)CCCC2 [Risperidone]	98.3 ± 3.1	81.0 ± 4.4	57.8 ± 5.2%	78.4 ± 1.5%	
CCN(C)C(=O)Oc1cccc([C@H](C)N(C)C)c1 [Rivastigmine]	91.4 ± 1.5	51.8 ± 4.0	25.1 ± 9.1%	59.4 ± 4.6%	
CN[C@H]1CC[C@@H](c2ccc(Cl)c(Cl)c2)c2ccccc21 [Sertraline]	100.5 ± 0.7	88.4 ± 2.1	43.6 ± 2.9%	96.1 ± 1.7%	IC50 values, OCT2-mediated metformin transport (in words) (OCT2 [1]; potent inhibitors, confirmed previous findings [19]-[21]): low micromolar range
CCC(C)(C)C(=O)O[C@H]1C[C@@H](C)C=C2C=C[C@H](C)[C@H](CC[C@@H]3C[C@@H](O)CC(=O)O3)[C@H]21 [Simvastatin lactone]	57.6 ± 10.0	-15.4 ± 5.5	48.5 ± 9.0%	53.8 ± 13.1%	
CC(=O)S[C@@H]1CC2=CC(=O)CC[C@]2(C)[C@H]2CC[C@@]3(C)[C@@H](CC[C@@]34CCC(=O)O4)[C@H]12 [Spironolactone]	98.4 ± 1.0		33.5 ± 4.7%	95.0 ± 0.5%	Cmax,u [3]: 20 nM; Cmax [3]: 1200 nM; Cmax,u / IC50 (OCT2 [1]): 0.02; IC50 (OCT2 [1]; human, pH 7.3): 1290 nM
CCOc1ccccc1OCCN[C@H](C)Cc1ccc(OC)c(S(N)(=O)=O)c1 [Tamsulosin]	107.0 ± 3.1		14.9 ± 4.8%	65.7 ± 2.9%	
Cn1c(=O)c2[nH]cnc2n(C)c1=O [Theophylline]	-36.6 ± 10.9	-21.5 ± 13.0	-12.9 ± 5.7%	-16.7 ± 6.8%	
Cc1cccc(Nc2ccncc2S(=O)(=O)NC(=O)NC(C)C)c1 [Torasemide]	-19.5 ± 0.8	-33.2 ± 5.0	-11.4 ± 2.3%	-40.3 ± 5.0%	
COc1cccc(C2(O)CCCCC2CN(C)C)c1 (stereo not drawn) [Tramadol]	103.7 ± 9.2	47.1 ± 9.5			% Inhibition of OCT2-dependent MPP+ uptake at 20 µM (mean ± SEM) (OCT2 [2]; human, pH 7.3): 5.9 ± 7.9; % Inhibition of OCT2-dependent MPP+ uptake at 200 µM (mean ± SEM) (OCT2 [2]; human, pH 7.3): 31.4 ± 1.4
Nc1nc(N)c2nc(-c3ccccc3)c(N)nc2n1 [Triamterene]	92.0 ± 2.1	48.0 ± 5.1	6.6 ± 11.2%	17.5 ± 3.8%	
CCCC(CCC)C(=O)O [Valproic acid]	27.7 ± 1.9	18.5 ± 7.6	-17.3 ± 9.5%	-29.0 ± 9.2%	
CCCCC(=O)N(Cc1ccc(-c2ccccc2-c2nnn[nH]2)cc1)[C@H](C(=O)O)C(C)C [Valsartan]					inhibition at 3 min, 20 µM (OCT2 [1]; human, pH 7.3): -41.7 ± 1.8%; inhibition at 3 min, 200 µM (OCT2 [1]; human, pH 7.3): -12.9 ± 3.6%; inhibition at 3 min, 20 µM (OCT2 [2]; human, pH 7.3): -77.2 ± 6%; inhibition at 3 min, 200 µM (OCT2 [2]; human, pH 7.3): -82.1 ± 9.9%
COc1ccc(C(CN(C)C)C2(O)CCCCC2)cc1 (stereo not drawn) [Venlafaxine]	72.2 ± 2.5	17.6 ± 3.2	-43.3 ± 13.0%	-54.3 ± 13.1%	
Cc1cccc(C)c1NC(=O)c1cc(S(N)(=O)=O)c(Cl)cc1O [Xipamide]	9.4 ± 9.2	-22.3 ± 9.7	10.5 ± 3.7%	6.6 ± 9.3%	
Cc1ccc(-c2nc3ccc(C)cn3c2CC(=O)N(C)C)cc1 [Zolpidem]	99.1 ± 0.5				Cmax,u [3]: 50 nM; Cmax [3]: 650 nM; IC50 (OCT2 [1]; human, pH 7.3): 150 nM; % Inhibition of OCT2-dependent MPP+ uptake at 20 µM (mean ± SEM) (OCT2 [2]; human, pH 7.3): 36.5 ± 4.3; % Inhibition of OCT2-dependent MPP+ uptake at 200 µM (mean ± SEM) (OCT2 [2]; human, pH 7.3): 90.7 ± 8.2
